Legend:
Gefitinib = compound: COc1cc2ncnc(Nc3ccc(F)c(Cl)c3)c2cc1OCCCN1CCOCC1 [Gefitinib]; conditions: max 10 µM
How it was run: (§1)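 Following 24 hours at 37°C and 5% CO2, cancer cell lines in 1536-well plates with 7.5 μl DMEM/F12 or RPMI and 10% FBS were dosed for 72 hours, final DMSO typically being 0.2%. CellTiter-Glo 2.0 luminescence, scaled between blank-well and DMSO-well means, gave the viability readout. Dose responses were fitted to a two-parameter logistic curve with a non-linear mixed effects model, and the single-agent IC50 was derived from this fit.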

Palbociclib = compound: CC(=O)c1c(C)c2cnc(Nc3ccc(N4CCNCC4)cn3)nc2n(C2CCCC2)c1=O [Palbociclib]; conditions: max 10 µM
How it was run: as §1

AZD2811 = compound: CCN(CCO)CCCOc1ccc2c(Nc3cc(CC(=O)Nc4cccc(F)c4)[nH]n3)ncnc2c1 [AZD2811]; conditions: max 1 µM
How it was run: as §1

Dasatinib = compound: CC1=C(C(=CC=C1)Cl)NC(=O)C2=CN=C(S2)NC3=CC(=NC(=N3)C)N4CCN(CC4)CCO [Dasatinib]; conditions: max 2 µM
How it was run: as §1

AZD5991 = compound: Cc1c2c(nn1C)CSCc1cc(n(C)n1)CSc1cc(c3ccccc3c1)OCCCc1c(C(=O)O)n(C)c3c-2c(Cl)ccc13 [AZD5991]; conditions: max 1 µM
How it was run: as §1

SN-38 = compound: CCc1c2c(nc3ccc(O)cc13)-c1cc3c(c(=O)n1C2)COC(=O)[C@]3(O)CC [SN-38]; conditions: max 0.3 µM
How it was run: as §1

Savolitinib = compound: C[C@@H](c1ccc2nccn2c1)n1nnc2ncc(-c3cnn(C)c3)nc21 [Savolitinib]; conditions: max 1 µM
How it was run: as §1

AZD0156 = compound: CN(C)CCCOc1ccc(-c2ccc3ncc4c(c3c2)n(C2CCOCC2)c(=O)n4C)cn1 [AZD0156]; conditions: max 3 µM
How it was run: as §1

Doxorubicin = compound: COc1cccc2c1C(=O)c1c(O)c3c(c(O)c1C2=O)C[C@@](O)(C(=O)CO)C[C@@H]3O[C@H]1C[C@H](N)[C@H](O)[C@H](C)O1 [Doxorubicin]; conditions: max 1 µM
How it was run: as §1

AZD4320 = compound: CN(CC[C@H](CSC1=CC=CC=C1)NC2=C(C=C(C=C2)S(=O)(=O)NC(=O)C3=CC=C(C=C3)N4CCC(CC4)[C@H](C5=CC=CC=C5C6=CC=C(C=C6)Cl)O)S(=O)(=O)C(F)(F)F)CCO [AZD4320]; conditions: max 1 µM
How it was run: as §1

AZD8186 = compound: C[C@@H](Nc1cc(F)cc(F)c1)c1cc(C(=O)N(C)C)cc2c(=O)cc(N3CCOCC3)oc12 [AZD8186]; conditions: max 3 µM
How it was run: as §1

AZD7648 = compound: Cc1cc2ncnn2cc1Nc1ncc2c(n1)n(C1CCOCC1)c(=O)n2C [AZD7648]; conditions: max 10 µM
How it was run: as §1

Trametinib = compound: CC(=O)Nc1cccc(-n2c(=O)n(C3CC3)c(=O)c3c(Nc4ccc(I)cc4F)n(C)c(=O)c(C)c32)c1 [Trametinib]; conditions: max 1 µM
How it was run: as §1

AZD5153 = compound: COc1nnc2ccc(N3CCC(c4ccc(OCCN5CCN(C)C(=O)[C@H]5C)cc4)CC3)nn12 [AZD5153]; conditions: max 1 µM
How it was run: as §1

Crizotinib = compound: C[C@@H](Oc1cc(-c2cnn(C3CCNCC3)c2)cnc1N)c1c(Cl)ccc(F)c1Cl [Crizotinib]; conditions: max 10 µM
How it was run: as §1

Prexasertib = compound: COc1cccc(OCCCN)c1-c1cc(Nc2cnc(C#N)cn2)n[nH]1 [Prexasertib]; conditions: max 1 µM
How it was run: as §1

AZD1390 = compound: CC(C)n1c(=O)n(C)c2cnc3cc(F)c(-c4ccc(OCCCN5CCCCC5)nc4)cc3c21 [AZD1390]; conditions: max 0.3 µM
How it was run: as §1

Lapatinib = compound: CS(=O)(=O)CCNCc1ccc(-c2ccc3ncnc(Nc4ccc(OCc5cccc(F)c5)c(Cl)c4)c3c2)o1 [Lapatinib]; conditions: max 10 µM
How it was run: as §1

Venetoclax = compound: CC1(C)CCC(CN2CCN(c3ccc(C(=O)NS(=O)(=O)c4ccc(NCC5CCOCC5)c([N+](=O)[O-])c4)c(Oc4cnc5[nH]ccc5c4)c3)CC2)=C(c2ccc(Cl)cc2)C1 [Venetoclax]; conditions: max 1 µM
How it was run: as §1

Olaparib = compound: O=C(c1cc(Cc2n[nH]c(=O)c3ccccc23)ccc1F)N1CCN(C(=O)C2CC2)CC1 [Olaparib]; conditions: max 10 µM
How it was run: as §1

SG3199 = compound: CC1=CN2[C@@H](C1)C=NC3=CC(=C(C=C3C2=O)OC)OCCCCCOC4=C(C=C5C(=C4)N=C[C@@H]6CC(=CN6C5=O)C)OC [SG3199]; conditions: max 0.001 µM
How it was run: as §1

Selumetinib = compound: Cn1cnc2c(F)c(Nc3ccc(Br)cc3Cl)c(C(=O)NOCCO)cc21 [Selumetinib]; conditions: max 10 µM
How it was run: as §1

Capivasertib = compound: C1CN(CCC1(C(=O)N[C@@H](CCO)C2=CC=C(C=C2)Cl)N)C3=NC=NC4=C3C=CN4 [Capivasertib]; conditions: max 10 µM
How it was run: as §1

AZD6738 = compound: C[C@@H]1COCCN1C2=NC(=NC(=C2)C3(CC3)[S@](=N)(=O)C)C4=C5C=CNC5=NC=C4 [AZD6738]; conditions: max 10 µM
How it was run: as §1

Taselisib = compound: Cc1nc(-c2cn3c(n2)-c2ccc(-c4cnn(C(C)(C)C(N)=O)c4)cc2OCC3)n(C(C)C)n1 [Taselisib]; conditions: max 10 µM
How it was run: as §1

AZD1775 = compound: C=CCn1c(=O)c2cnc(Nc3ccc(N4CCN(C)CC4)cc3)nc2n1-c1cccc(C(C)(C)O)n1 [AZD1775]; conditions: max 3 µM
How it was run: as §1

Alisertib = compound: COc1cc(Nc2ncc3c(n2)-c2ccc(Cl)cc2C(c2c(F)cccc2OC)=NC3)ccc1C(=O)O [Alisertib]; conditions: max 10 µM
How it was run: as §1

Cell Line | IC50, cell viability 72 h (Gefitinib) | IC50, cell viability 72 h (Palbociclib) | IC50, cell viability 72 h (AZD2811) | IC50, cell viability 72 h (Dasatinib) | IC50, cell viability 72 h (AZD5991) | IC50, cell viability 72 h (SN-38) | IC50, cell viability 72 h (Savolitinib) | IC50, cell viability 72 h (AZD0156) | IC50, cell viability 72 h (Doxorubicin) | IC50, cell viability 72 h (AZD4320) | IC50, cell viability 72 h (AZD8186) | IC50, cell viability 72 h (AZD7648) | IC50, cell viability 72 h (Trametinib) | IC50, cell viability 72 h (AZD5153) | IC50, cell viability 72 h (Crizotinib) | IC50, cell viability 72 h (Prexasertib) | IC50, cell viability 72 h (AZD1390) | IC50, cell viability 72 h (Lapatinib) | IC50, cell viability 72 h (Venetoclax) | IC50, cell viability 72 h (Olaparib) | IC50, cell viability 72 h (SG3199) | IC50, cell viability 72 h (Selumetinib) | IC50, cell viability 72 h (Capivasertib) | IC50, cell viability 72 h (AZD6738) | IC50, cell viability 72 h (Taselisib) | IC50, cell viability 72 h (AZD1775) | IC50, cell viability 72 h (Alisertib)
EPLC-272H (Other Solid Carcinomas) | 5.46 µM | > 10 µM | > 1 µM | 0.148 µM | 0.391 µM | 0.126 µM | > 1 µM | > 3 µM | > 1 µM | > 1 µM | > 3 µM | > 10 µM | 0.0227 µM | 0.116 µM | > 10 µM | 0.00851 µM | > 0.3 µM | 5.77 µM | > 1 µM | > 10 µM | > 0.001 µM | 2.28 µM | 1.8 µM | 1 µM | 0.256 µM | 0.454 µM | > 10 µM
GCT (Other Solid Carcinomas) | > 10 µM | > 10 µM | > 1 µM | 0.703 µM | > 1 µM | 0.0435 µM | > 1 µM | > 3 µM | > 1 µM | > 1 µM | > 3 µM | > 10 µM | 0.846 µM | 0.603 µM | > 10 µM | > 1 µM | > 0.3 µM | > 10 µM | > 1 µM | > 10 µM | > 0.001 µM | > 10 µM | 6.42 µM | > 10 µM | 8.27 µM | > 3 µM | > 10 µM
AU565 (Breast Carcinoma) | 2.74 µM | > 10 µM | > 1 µM | > 2 µM | 0.0683 µM | 0.0145 µM | > 1 µM | > 3 µM | 0.634 µM | > 1 µM | > 3 µM | > 10 µM | > 1 µM | > 1 µM | > 10 µM | 0.133 µM | > 0.3 µM | 0.358 µM | > 1 µM | > 10 µM | > 0.001 µM | > 10 µM | 7.95 µM | > 10 µM | 3.15 µM | 0.435 µM | 9.28 µM
GA-10 (Burkitt's Lymphoma) | > 10 µM | 0.234 µM | 0.108 µM | 0.166 µM | 0.252 µM | 0.0234 µM | > 1 µM | > 3 µM | 0.369 µM | > 1 µM | 0.978 µM | > 10 µM | > 1 µM | 0.0833 µM | 2.34 µM | 0.00918 µM | > 0.3 µM | > 10 µM | > 1 µM | > 10 µM | > 0.001 µM | > 10 µM | 1.48 µM | 0.631 µM | 0.845 µM | 0.503 µM | 0.147 µM
CAL-27 (Oral Cavity Carcinoma) | 0.839 µM | > 10 µM | 0.608 µM | 0.431 µM | 0.413 µM | 0.0136 µM | > 1 µM | > 3 µM | 0.927 µM | > 1 µM | > 3 µM | > 10 µM | 0.129 µM | 0.426 µM | > 10 µM | 0.894 µM | > 0.3 µM | 0.933 µM | > 1 µM | > 10 µM | > 0.001 µM | 1.89 µM | > 10 µM | > 10 µM | 0.854 µM | 1.85 µM | 0.443 µM
huH-1 (Hepatocellular Carcinoma) | > 10 µM | > 10 µM | > 1 µM | > 2 µM | > 1 µM | 0.068 µM | > 1 µM | > 3 µM | > 1 µM | > 1 µM | > 3 µM | > 10 µM | > 1 µM | > 1 µM | > 10 µM | 0.093 µM | > 0.3 µM | > 10 µM | > 1 µM | > 10 µM | > 0.001 µM | > 10 µM | > 10 µM | 5.64 µM | > 10 µM | 2.52 µM | > 10 µM
JVM-2 (B-Cell Non-Hodgkin's Lymphoma) | > 10 µM | 1.54 µM | 0.238 µM | 0.0446 µM | > 1 µM | 0.00386 µM | > 1 µM | > 3 µM | 0.0481 µM | > 1 µM | 0.976 µM | > 10 µM | > 1 µM | 0.0531 µM | 5.65 µM | 0.0108 µM | > 0.3 µM | 9.87 µM | > 1 µM | > 10 µM | > 0.001 µM | > 10 µM | 1.28 µM | 3.23 µM | 0.307 µM | 0.0983 µM | 0.203 µM
Jurkat (T-Lymphoblastic Leukemia) | > 10 µM | 7.66 µM | > 1 µM | > 2 µM | 0.292 µM | 0.00797 µM | > 1 µM | > 3 µM | 0.415 µM | 0.482 µM | > 3 µM | > 10 µM | > 1 µM | 0.21 µM | > 10 µM | 0.0258 µM | > 0.3 µM | > 10 µM | > 1 µM | > 10 µM | > 0.001 µM | > 10 µM | 2.61 µM | 3.55 µM | 5.81 µM | 1.74 µM | 8.51 µM

From the supplement of paper PMC11061612
